This is an account of results in PubChem BioAssay (NCI).

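1) Cells in 96-well plates. 2) Compound, 48 h, 5 concentrations. 3) Linear interpolation between surrounding doses. 4) Unreached endpoint = highest concentration. GI50 = concentration required for 50% inhibition of growth. TGI is the concentration that stops growth completely.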

Among the test systems are SN12C renal; SF-295 CNS; MOLT-4 leukemia; SF-268 CNS; NCI-H522 lung; COLO 205 colon; OVCAR-3 ovarian; NCI-H226 lung; SF-539 CNS; OVCAR-4 ovarian; SW-620 colon.
Assay in all cases: NCI-60 cell line screen, 48 h

Turning to `CN(C)c1ccc(/C=C/c2sc3ccc4ccccc4c3[n+]2C)cc1`, in the test with SN12C renal, the GI50 is 0.359 µM and the TGI is 3.43 µM. Moreover, in the test with SF-295 CNS, the GI50 is 0.395 µM and the TGI was 2.32 µM.
In the case of `C=C(C)CCC1CCCCC(CN(C)C)C1=O` (stereo not drawn), the TGI in the test on MOLT-4 leukemia is more than 100 µM; in the test with SF-268 CNS, more than 100 µM; in the test with SN12C renal, more than 100 µM; with NCI-H522 lung it was 27.2 µM; in the test with COLO 205 colon it was more than 100 µM; with OVCAR-3 ovarian, more than 100 µM. The TGI with SF-295 CNS, with NCI-H226 lung, in the test on SF-539 CNS, in the test with OVCAR-4 ovarian and with SW-620 colon was more than 100 µM in each case.
For the compound `C/C(Cl)=N\OC(=O)Nc1ccccc1C(F)(F)F`, the TGI in the test on MOLT-4 leukemia is 47.9 µM; with SF-268 CNS, more than 100 µM; in the test on SN12C renal it was more than 100 µM; in the test with COLO 205 colon, 43.6 µM; with OVCAR-3 ovarian, 29.2 µM; with SF-295 CNS, more than 100 µM. Also, the TGI in the test with SF-539 CNS is more than 100 µM; in the test with OVCAR-4 ovarian, 26.9 µM; in the test on SW-620 colon, 36.1 µM.
Take `COC1(OC)N=C(N)C2(C#N)C(C)CC(=O)N(N(C)C)C12C#N` (stereo not drawn): the TGI in the test on MOLT-4 leukemia, with SF-268 CNS, in the test with SN12C renal, in the test on NCI-H522 lung, in the test with COLO 205 colon and in the test with SF-295 CNS was more than 100 µM throughout. For the same compound, the TGI in the test on NCI-H226 lung, in the test on SF-539 CNS and with SW-620 colon was more than 100 µM throughout.
Consider `CN1N=C2c3ccccc3CC[C@H]2C1c1ccccc1` (stereo partly drawn), for which the TGI in the test with MOLT-4 leukemia is more than 100 µM; in the test with SF-268 CNS it was more than 100 µM; with SN12C renal, more than 100 µM; in the test on NCI-H522 lung, 94.3 µM; in the test on COLO 205 colon it was more than 100 µM; in the test on OVCAR-3 ovarian, more than 100 µM. Also, the TGI in the test on SF-295 CNS, in the test with NCI-H226 lung, in the test on SF-539 CNS, in the test on OVCAR-4 ovarian and with SW-620 colon was more than 100 µM throughout.
On to `OC(c1cccs1)c1cc2ccccc2s1` (stereo not drawn), for which the TGI with MOLT-4 leukemia, in the test with SF-268 CNS, in the test on SN12C renal, in the test with NCI-H522 lung, with COLO 205 colon and in the test on OVCAR-3 ovarian was more than 10 µM each time. Moreover, the TGI with SF-295 CNS, in the test on NCI-H226 lung, in the test with SF-539 CNS, in the test on OVCAR-4 ovarian and with SW-620 colon was more than 10 µM each time.
Turning to `Cc1ccc(/C=C2\NC(=S)N(CN3CCOCC3)C2=O)cc1`, the TGI in the test on MOLT-4 leukemia, with SF-268 CNS, in the test on SN12C renal, with COLO 205 colon, in the test on OVCAR-3 ovarian and in the test with SF-295 CNS was more than 100 µM throughout. Also, the TGI with NCI-H226 lung, in the test with OVCAR-4 ovarian and in the test on SW-620 colon was more than 100 µM throughout.
For the compound `Cc1cc(N(CCC#N)CCC#N)ccc1/C=C(\NC(=O)/C=C/c1ccccc1)NC(=O)Nc1ccc(Cl)cc1`, the TGI with MOLT-4 leukemia, in the test on SF-268 CNS, in the test on SN12C renal, with COLO 205 colon, in the test on OVCAR-3 ovarian and in the test with SF-295 CNS was more than 100 µM each time. Moreover, the TGI in the test on NCI-H226 lung, in the test on SF-539 CNS, in the test on OVCAR-4 ovarian and with SW-620 colon was more than 100 µM each time.
For `CCSc1nc2sc(C)c(C)c2c(=O)n1-c1ccc(C(=O)O)cc1`, the TGI with MOLT-4 leukemia is more than 100 µM; in the test with SF-268 CNS it was more than 100 µM; with SN12C renal it was more than 100 µM; in the test with NCI-H522 lung, 76.3 µM; in the test with COLO 205 colon, more than 100 µM; in the test with OVCAR-3 ovarian, 74.4 µM. Moreover, the TGI with SF-295 CNS is more than 100 µM; with NCI-H226 lung it was 86.2 µM; in the test with SF-539 CNS, 55 µM; in the test with OVCAR-4 ovarian, more than 100 µM; with SW-620 colon it was more than 100 µM.
With `O=C(CSc1nnc(Cc2ccccc2)o1)Nc1ccc(Cl)cc1`, the TGI in the test with MOLT-4 leukemia, in the test on SN12C renal, in the test with NCI-H522 lung, with COLO 205 colon, with OVCAR-3 ovarian and with SF-295 CNS was more than 100 µM each time. Also, the TGI in the test with NCI-H226 lung, with SF-539 CNS, in the test on OVCAR-4 ovarian and in the test on SW-620 colon was more than 100 µM each time.
In the case of `CC12O[C@H](c3ccccc3)[C@H](c3ccccc3)N1C(=O)C1(C(=O)OCc3ccccc3)CC12` (stereo partly drawn), the TGI in the test on MOLT-4 leukemia was 63.2 µM; with SF-268 CNS it was more than 100 µM; in the test with SN12C renal it was more than 100 µM; with NCI-H522 lung, more than 100 µM; in the test on COLO 205 colon, more than 100 µM; with OVCAR-3 ovarian, more than 100 µM. In addition, the TGI with SF-295 CNS, with NCI-H226 lung, in the test with OVCAR-4 ovarian and in the test with SW-620 colon was more than 100 µM in each case.
Regarding `Oc1ccc(-c2nc3cc(C(F)(F)F)ccc3n2CC2CCCN3CCCCC23)cc1` (stereo not drawn), the TGI was 33.5 µM in the test on MOLT-4 leukemia; 28.1 µM in the test with SF-268 CNS; 29 µM in the test on NCI-H522 lung; 27 µM in the test on OVCAR-3 ovarian; 28.4 µM with SF-295 CNS; 32.2 µM in the test with NCI-H226 lung. The TGI was determined as 34.6 µM in the test on SF-539 CNS, 31.2 µM in the test on OVCAR-4 ovarian and 28.4 µM in the test with SW-620 colon.
For `Nc1nc2c(ncn2CCOC(c2ccccc2)P(=O)(O)O)c(=O)[nH]1` (stereo not drawn), the TGI in the test with SF-268 CNS, in the test on SN12C renal, with NCI-H522 lung, in the test with COLO 205 colon, with OVCAR-3 ovarian and with SF-295 CNS was more than 100 µM each time. The TGI in the test with NCI-H226 lung, in the test on SF-539 CNS and with SW-620 colon was more than 100 µM each time.
In the case of `NC(=O)N/N=C(\Cc1nc2ccc(C(=O)c3ccccc3)cc2[nH]c1=O)C(=O)Nc1ccc(Br)cc1`, the TGI with MOLT-4 leukemia, with SF-268 CNS, in the test with SN12C renal, in the test with NCI-H522 lung, with OVCAR-3 ovarian and with SF-295 CNS was more than 100 µM each time. Also, the TGI in the test on NCI-H226 lung, in the test on SF-539 CNS, with OVCAR-4 ovarian and with SW-620 colon was more than 100 µM each time.
Turning to `COC(=O)NCCc1[nH]nc2c1C(=O)C=C(OC)C2=O`, the TGI worked out at 46.4 µM in the test with MOLT-4 leukemia; 36 µM in the test on SF-268 CNS; 38.8 µM in the test on SN12C renal; 44.3 µM in the test with NCI-H522 lung; 52.8 µM with COLO 205 colon; 32 µM in the test on OVCAR-3 ovarian. The TGI is 32.2 µM in the test on SF-295 CNS; 50.5 µM in the test on NCI-H226 lung; 33.5 µM in the test with SF-539 CNS; 35.5 µM in the test on OVCAR-4 ovarian; 43.9 µM in the test with SW-620 colon.
For the compound `O=[N+]([O-])CC(SCc1ccccc1)c1ccc2c(c1)OCO2` (stereo not drawn), the TGI with MOLT-4 leukemia was 21.1 µM; in the test with SF-268 CNS, more than 61.2 µM; in the test with SN12C renal it was 25.7 µM; in the test on NCI-H522 lung, 28.3 µM; in the test with COLO 205 colon it was 21.1 µM; in the test on OVCAR-3 ovarian, 18.3 µM. In addition, the TGI with SF-295 CNS was determined as 23.1 µM; in the test on NCI-H226 lung it was 23.2 µM; with SF-539 CNS, 10.9 µM; in the test on OVCAR-4 ovarian, 27.1 µM; in the test on SW-620 colon, 15.4 µM.
As for `NC1CC2C3CCC2C1C3=O` (stereo not drawn), the TGI with MOLT-4 leukemia, with SF-268 CNS, in the test on SN12C renal, in the test with NCI-H522 lung, in the test on COLO 205 colon and in the test with OVCAR-3 ovarian was more than 100 µM throughout. Also, the TGI in the test on SF-295 CNS, in the test on NCI-H226 lung, with SF-539 CNS, in the test on OVCAR-4 ovarian and in the test with SW-620 colon was more than 100 µM in each case.
Consider `N#CCCC(CC#N)N1CCN(CCO)CC1` (stereo not drawn), for which the TGI in the test on MOLT-4 leukemia, in the test with SF-268 CNS, in the test with SN12C renal, in the test on COLO 205 colon, in the test on SF-295 CNS and in the test with NCI-H226 lung was more than 100 µM each time. In addition, the TGI with SF-539 CNS, with OVCAR-4 ovarian and in the test on SW-620 colon was more than 100 µM each time.
In the case of `O=[N+]([O-])c1ccc(Cl)cc1C1ON=C(c2ccccc2)N1C12CC3CC(CC(C3)C1)C2` (stereo not drawn), the TGI in the test on MOLT-4 leukemia, with SF-268 CNS, in the test with SN12C renal, with NCI-H522 lung, with COLO 205 colon and with OVCAR-3 ovarian was more than 100 µM in each case. The TGI in the test with SF-295 CNS, in the test on NCI-H226 lung, in the test on SF-539 CNS and in the test on OVCAR-4 ovarian was more than 100 µM throughout.
For the compound `CN(C)C(=O)CC(C(=O)O)c1c[nH]c2ccccc12` (stereo not drawn), the TGI in the test with MOLT-4 leukemia, in the test with SN12C renal, with NCI-H522 lung, with COLO 205 colon, in the test with OVCAR-3 ovarian and with SF-295 CNS was more than 100 µM each time. In addition, the TGI in the test on SF-539 CNS, in the test with OVCAR-4 ovarian and in the test with SW-620 colon was more than 100 µM throughout.
Take `CCc1cccc(C(C)C)c1NC(=O)C(=O)C(C(=O)C(=O)OC)c1nc2ccccc2[nH]c1=O` (stereo not drawn): the TGI in the test with MOLT-4 leukemia, in the test on SF-268 CNS, with SN12C renal, in the test with NCI-H522 lung, in the test on COLO 205 colon and with SF-295 CNS was more than 100 µM each time. The TGI in the test on NCI-H226 lung, in the test on OVCAR-4 ovarian and in the test with SW-620 colon was more than 100 µM throughout.
